The values below come from ChEMBL document CHEMBL5465560, “Selectivity Literature for EUbOPEN Chemogenomic Library” (2024).

The structures appear in SMILES notation.

Experiment [1] concerns the target T1, Serine/threonine-protein kinase DCLK1 (Homo sapiens) (UniProt O15075).
T1 sequence (whole entry): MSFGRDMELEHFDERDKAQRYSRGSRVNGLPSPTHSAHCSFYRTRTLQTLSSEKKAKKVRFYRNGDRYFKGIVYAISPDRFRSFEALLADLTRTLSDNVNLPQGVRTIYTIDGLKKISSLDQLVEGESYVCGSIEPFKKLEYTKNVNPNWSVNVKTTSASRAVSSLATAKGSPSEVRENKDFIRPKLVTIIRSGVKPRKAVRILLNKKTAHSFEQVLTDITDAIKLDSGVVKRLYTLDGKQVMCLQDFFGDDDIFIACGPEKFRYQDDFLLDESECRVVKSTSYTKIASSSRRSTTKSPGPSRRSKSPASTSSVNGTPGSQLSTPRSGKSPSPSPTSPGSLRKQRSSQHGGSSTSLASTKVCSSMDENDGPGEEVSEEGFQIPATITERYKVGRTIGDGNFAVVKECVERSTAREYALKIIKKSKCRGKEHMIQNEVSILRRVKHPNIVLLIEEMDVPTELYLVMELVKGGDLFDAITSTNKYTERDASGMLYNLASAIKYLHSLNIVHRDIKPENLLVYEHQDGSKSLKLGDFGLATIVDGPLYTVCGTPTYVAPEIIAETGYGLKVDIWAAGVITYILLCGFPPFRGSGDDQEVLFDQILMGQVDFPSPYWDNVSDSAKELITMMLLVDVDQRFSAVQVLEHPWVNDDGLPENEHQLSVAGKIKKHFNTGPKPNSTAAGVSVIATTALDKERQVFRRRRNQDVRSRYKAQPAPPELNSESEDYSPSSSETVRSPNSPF
Put plainly: Selectivity interaction (Kinase panel (DSF assay)) EUB0001558a DCLK1.

Experiment [2] has as its target Epidermal growth factor receptor (Homo sapiens, UniProt P00533). The experiment can be described thus: Selectivity interaction (Millipore kinase profiler) EUB0000124b EGFR. The following applies: at 10 µM.
Experiment [3] has as its target BMP-2-inducible protein kinase (Homo sapiens) (UniProt Q9NSY1). Put plainly: Selectivity interaction (KinomeScan (DiscoverX)) EUB0001049a BMP2K. The conditions noted are these: at 1 µM.
Experiment [4] has as its target T2, Serine/threonine-protein kinase tousled-like 1 (Homo sapiens) (UniProt Q9UKI8).
T2 sequence (whole entry): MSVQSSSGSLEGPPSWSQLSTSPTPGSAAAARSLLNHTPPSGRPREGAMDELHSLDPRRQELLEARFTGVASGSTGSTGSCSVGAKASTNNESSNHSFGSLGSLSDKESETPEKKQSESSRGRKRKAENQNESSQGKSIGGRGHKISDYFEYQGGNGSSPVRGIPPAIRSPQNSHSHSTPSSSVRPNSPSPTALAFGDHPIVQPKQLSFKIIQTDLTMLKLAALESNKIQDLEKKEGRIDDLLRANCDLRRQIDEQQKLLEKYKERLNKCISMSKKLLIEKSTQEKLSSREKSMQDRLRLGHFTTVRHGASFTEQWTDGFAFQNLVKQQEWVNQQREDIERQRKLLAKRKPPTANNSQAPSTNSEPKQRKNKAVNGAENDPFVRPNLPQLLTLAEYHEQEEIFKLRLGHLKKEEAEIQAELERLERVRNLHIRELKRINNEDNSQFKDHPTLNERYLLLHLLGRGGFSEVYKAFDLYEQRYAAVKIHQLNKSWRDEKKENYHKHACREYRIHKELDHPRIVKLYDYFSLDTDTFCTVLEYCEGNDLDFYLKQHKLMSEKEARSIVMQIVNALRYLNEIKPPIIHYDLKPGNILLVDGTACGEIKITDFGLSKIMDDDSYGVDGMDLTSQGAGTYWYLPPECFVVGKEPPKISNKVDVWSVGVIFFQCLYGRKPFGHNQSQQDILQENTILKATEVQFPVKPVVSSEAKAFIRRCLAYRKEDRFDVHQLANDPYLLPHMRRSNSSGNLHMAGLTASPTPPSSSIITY
Put plainly: Selectivity interaction (KinomeScan (DiscoverX)) EUB0000655a TLK1. The following applies: at 10 µM.

The target of experiment [5] is T3, Serine/threonine-protein kinase Sgk3 (Homo sapiens) (UniProt Q96BR1).
T3 sequence (whole entry): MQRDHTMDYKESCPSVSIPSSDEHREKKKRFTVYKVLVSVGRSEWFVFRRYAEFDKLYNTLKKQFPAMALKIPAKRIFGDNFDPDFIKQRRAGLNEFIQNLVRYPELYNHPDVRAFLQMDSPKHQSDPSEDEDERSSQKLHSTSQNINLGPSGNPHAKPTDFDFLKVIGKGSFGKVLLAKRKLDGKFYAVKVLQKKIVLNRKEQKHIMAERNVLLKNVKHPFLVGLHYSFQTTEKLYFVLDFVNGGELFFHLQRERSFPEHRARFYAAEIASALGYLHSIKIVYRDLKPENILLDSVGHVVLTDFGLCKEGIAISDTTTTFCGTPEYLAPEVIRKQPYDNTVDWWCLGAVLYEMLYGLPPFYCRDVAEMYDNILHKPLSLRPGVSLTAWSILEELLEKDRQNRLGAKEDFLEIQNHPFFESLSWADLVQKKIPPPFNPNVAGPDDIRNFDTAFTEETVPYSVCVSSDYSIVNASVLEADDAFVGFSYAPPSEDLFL
Put plainly: Selectivity interaction (ActivX KiNativ screen (kinase selectivity in THP-1 cell lysates)) EUB0000639a SGK3. It is filed as subcellular. The conditions noted are these: lysate, at 0.04 µM.

Experiment [6] has as its target Macrophage colony-stimulating factor 1 receptor (Homo sapiens) (UniProt P07333). Put plainly: Selectivity interaction (KinomeScan (DiscoverX)) EUB0000595a CSF1R. The following applies: at 10 µM.
In experiment [7] the target is Ephrin type-A receptor 2 (Homo sapiens) (UniProt P29317). Put plainly: Selectivity interaction (Kinase panel (literature)) EUB0001199aCl EPHA2. The conditions noted are these: at 1 µM.
Ephrin type-A receptor 2 (Homo sapiens), sequence (P29317 whole entry): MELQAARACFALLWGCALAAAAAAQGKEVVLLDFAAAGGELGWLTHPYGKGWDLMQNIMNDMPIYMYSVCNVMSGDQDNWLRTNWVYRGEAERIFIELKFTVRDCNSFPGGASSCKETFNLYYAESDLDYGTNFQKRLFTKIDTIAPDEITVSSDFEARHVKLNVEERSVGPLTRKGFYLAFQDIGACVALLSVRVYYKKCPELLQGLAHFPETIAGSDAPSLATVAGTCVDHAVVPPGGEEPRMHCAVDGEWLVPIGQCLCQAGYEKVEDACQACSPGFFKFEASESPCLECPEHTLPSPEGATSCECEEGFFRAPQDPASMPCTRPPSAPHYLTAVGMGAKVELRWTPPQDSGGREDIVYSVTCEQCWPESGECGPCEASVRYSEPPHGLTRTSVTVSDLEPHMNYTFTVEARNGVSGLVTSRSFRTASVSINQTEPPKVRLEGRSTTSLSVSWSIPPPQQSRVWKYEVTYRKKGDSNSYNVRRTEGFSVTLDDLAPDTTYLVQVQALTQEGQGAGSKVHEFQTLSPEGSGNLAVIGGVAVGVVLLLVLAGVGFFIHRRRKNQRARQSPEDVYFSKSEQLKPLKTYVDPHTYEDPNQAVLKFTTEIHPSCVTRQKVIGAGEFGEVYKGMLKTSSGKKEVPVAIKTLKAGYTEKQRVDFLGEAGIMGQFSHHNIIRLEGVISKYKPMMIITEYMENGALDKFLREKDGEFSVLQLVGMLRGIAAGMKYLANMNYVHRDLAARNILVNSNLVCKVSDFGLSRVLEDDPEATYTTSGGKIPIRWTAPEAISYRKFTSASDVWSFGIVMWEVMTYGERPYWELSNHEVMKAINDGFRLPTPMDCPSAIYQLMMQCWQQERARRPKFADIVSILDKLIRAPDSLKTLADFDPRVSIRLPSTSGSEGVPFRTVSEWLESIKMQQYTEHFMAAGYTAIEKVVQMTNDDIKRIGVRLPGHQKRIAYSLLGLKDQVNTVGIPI

Epidermal growth factor receptor, sequence (P00533 whole entry): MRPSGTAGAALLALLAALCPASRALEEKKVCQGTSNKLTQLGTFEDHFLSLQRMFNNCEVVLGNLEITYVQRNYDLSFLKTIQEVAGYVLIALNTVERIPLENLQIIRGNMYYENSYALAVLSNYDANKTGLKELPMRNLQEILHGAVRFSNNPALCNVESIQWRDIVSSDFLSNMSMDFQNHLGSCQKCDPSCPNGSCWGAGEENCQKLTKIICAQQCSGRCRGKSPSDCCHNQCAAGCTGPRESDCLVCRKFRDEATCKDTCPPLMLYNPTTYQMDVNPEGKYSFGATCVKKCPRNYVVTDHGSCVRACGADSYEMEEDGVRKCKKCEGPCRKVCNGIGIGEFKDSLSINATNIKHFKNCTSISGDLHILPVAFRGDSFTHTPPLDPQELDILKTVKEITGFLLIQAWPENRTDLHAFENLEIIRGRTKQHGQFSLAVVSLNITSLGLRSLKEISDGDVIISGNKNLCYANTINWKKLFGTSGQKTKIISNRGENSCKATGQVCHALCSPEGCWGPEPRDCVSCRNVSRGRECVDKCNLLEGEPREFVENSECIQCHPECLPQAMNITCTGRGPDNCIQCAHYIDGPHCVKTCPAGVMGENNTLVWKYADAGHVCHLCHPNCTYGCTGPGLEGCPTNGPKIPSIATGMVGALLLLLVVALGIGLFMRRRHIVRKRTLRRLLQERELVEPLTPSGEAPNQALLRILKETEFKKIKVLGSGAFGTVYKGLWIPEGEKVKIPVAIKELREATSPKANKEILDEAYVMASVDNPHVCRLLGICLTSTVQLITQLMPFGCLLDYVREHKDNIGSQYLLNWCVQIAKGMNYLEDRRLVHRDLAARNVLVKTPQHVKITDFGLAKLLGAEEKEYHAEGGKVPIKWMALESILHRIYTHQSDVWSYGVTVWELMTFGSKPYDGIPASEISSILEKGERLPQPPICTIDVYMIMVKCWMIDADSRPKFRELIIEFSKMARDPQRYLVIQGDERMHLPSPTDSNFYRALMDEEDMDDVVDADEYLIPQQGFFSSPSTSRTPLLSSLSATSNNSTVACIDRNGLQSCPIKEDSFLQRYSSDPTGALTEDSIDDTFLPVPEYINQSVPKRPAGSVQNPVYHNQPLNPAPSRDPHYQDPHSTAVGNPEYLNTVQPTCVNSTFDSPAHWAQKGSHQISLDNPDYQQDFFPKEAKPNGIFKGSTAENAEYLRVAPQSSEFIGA
Macrophage colony-stimulating factor 1 receptor (Homo sapiens), sequence (P07333 whole entry): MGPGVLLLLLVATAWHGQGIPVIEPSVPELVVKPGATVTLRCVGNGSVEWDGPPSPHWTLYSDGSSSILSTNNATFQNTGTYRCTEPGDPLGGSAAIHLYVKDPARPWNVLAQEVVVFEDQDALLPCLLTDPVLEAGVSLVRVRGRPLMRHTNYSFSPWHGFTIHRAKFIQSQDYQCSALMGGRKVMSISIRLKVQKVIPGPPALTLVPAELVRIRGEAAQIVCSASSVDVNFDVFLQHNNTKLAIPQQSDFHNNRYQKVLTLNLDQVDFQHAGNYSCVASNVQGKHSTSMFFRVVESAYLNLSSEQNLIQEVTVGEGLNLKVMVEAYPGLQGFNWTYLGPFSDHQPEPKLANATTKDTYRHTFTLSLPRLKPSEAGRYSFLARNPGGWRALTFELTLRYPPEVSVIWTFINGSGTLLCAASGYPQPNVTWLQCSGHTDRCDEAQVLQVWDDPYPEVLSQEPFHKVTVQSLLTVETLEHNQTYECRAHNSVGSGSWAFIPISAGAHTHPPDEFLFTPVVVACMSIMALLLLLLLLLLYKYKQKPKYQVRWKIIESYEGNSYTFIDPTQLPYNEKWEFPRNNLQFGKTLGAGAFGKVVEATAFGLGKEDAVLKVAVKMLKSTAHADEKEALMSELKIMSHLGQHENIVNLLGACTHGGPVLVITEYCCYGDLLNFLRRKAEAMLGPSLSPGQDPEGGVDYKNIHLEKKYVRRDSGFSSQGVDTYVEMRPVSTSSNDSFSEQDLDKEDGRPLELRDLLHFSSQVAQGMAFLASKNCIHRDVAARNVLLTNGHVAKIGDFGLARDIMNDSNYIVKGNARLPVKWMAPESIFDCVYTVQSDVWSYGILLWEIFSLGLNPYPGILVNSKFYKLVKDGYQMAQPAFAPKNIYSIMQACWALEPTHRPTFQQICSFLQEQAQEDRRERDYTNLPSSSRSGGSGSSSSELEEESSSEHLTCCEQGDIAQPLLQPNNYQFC
BMP-2-inducible protein kinase (Homo sapiens), sequence (Q9NSY1 whole entry, looked up): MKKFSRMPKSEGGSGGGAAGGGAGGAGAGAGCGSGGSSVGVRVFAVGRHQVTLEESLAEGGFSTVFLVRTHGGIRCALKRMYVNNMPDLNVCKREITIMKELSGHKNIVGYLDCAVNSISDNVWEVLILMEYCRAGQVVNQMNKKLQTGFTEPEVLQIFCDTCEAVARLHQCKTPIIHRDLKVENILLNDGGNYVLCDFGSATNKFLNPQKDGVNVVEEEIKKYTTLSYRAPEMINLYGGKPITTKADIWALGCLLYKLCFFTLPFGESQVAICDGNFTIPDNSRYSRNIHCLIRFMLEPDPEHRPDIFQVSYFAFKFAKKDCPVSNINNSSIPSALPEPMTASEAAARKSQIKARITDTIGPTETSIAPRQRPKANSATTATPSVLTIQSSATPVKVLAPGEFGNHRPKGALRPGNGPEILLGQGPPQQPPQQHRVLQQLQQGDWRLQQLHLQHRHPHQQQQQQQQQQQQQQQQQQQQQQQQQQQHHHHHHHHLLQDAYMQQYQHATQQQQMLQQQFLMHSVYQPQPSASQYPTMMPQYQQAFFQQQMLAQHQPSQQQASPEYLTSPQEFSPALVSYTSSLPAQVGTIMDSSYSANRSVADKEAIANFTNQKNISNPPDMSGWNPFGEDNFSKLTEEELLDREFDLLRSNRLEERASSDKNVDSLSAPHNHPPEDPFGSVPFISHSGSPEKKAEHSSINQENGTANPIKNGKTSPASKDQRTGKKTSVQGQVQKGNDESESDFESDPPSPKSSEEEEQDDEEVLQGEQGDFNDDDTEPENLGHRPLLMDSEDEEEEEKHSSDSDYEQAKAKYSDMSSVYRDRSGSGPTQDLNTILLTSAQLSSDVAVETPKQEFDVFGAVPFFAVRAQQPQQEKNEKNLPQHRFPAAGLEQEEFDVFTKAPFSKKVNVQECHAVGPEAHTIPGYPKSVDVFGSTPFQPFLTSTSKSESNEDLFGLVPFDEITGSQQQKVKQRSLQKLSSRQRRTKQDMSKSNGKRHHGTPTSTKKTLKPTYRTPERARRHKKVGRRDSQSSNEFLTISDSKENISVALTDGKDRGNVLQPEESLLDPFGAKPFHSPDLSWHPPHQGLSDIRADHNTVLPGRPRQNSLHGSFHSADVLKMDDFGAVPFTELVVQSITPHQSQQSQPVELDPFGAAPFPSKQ

Molecule `CC(C)(O)[C@H](F)CN1Cc2cc(NC(=O)c3cnn4cccnc34)c(N3CCOCC3)cc2C1=O` had a dTM in experiment [1] of -1 K. Molecule `CC(=O)Nc1cccc(-n2c(=O)n(C3CC3)c(=O)c3c(Nc4ccc(I)cc4F)n(C)c(=O)c(C)c32)c1` yielded a % of control in experiment [2] of 104%. In the case of `COc1cc(Nc2nc(C)cc(-c3cnn4nc(OC)ccc34)n2)cc(C(F)(F)F)c1`, in experiment [3], the % of control was 86%.

In the case of `CN(C)CCOc1ccc(-c2nc(-c3ccncc3)c(-c3ccc4c(c3)CC/C4=N\O)[nH]2)cc1`, the % of control in experiment [4] amounted to 99%. `CC[C@@H]1[C@H](F)C(=O)N[C@@H]1COc1nccc2cc(C(N)=O)c(OC)cc12` [ZIMLOVISERTIB] came in with a % of inhibition in experiment [5] of 3.1%. Molecule `COCC(=O)NC/C=C/c1ccc2ncnc(Nc3ccc(Oc4ccc(C)nc4)c(C)c3)c2c1` [CP-724714] had a % of control in experiment [6] of 100%. `CN1Cc2nccc(-c3cn(C)nc3-c3ccc(F)cc3)c2C1=O` came in with a % of inhibition in experiment [7] of 4%.
